Results published in patent publication US9890407B2, “Method for synthesizing cellulose in vitro” (University of Virginia Patent Foundation, priority 2013, dated 2018).

Biological target: T1, Rhodobacter sphaeroides BcsA-B complex (cellulose synthase), wild type, BcsA SEQ ID NO: 1, BcsB SEQ ID NO: 3 (Cereibacter sphaeroides, UniProt Q3J125)
T1 construct: pETDuet, E. coli C43; purified, reconstituted in nanodiscs, proteoliposomes or detergent
T1 sequence (Q3J125 1-788): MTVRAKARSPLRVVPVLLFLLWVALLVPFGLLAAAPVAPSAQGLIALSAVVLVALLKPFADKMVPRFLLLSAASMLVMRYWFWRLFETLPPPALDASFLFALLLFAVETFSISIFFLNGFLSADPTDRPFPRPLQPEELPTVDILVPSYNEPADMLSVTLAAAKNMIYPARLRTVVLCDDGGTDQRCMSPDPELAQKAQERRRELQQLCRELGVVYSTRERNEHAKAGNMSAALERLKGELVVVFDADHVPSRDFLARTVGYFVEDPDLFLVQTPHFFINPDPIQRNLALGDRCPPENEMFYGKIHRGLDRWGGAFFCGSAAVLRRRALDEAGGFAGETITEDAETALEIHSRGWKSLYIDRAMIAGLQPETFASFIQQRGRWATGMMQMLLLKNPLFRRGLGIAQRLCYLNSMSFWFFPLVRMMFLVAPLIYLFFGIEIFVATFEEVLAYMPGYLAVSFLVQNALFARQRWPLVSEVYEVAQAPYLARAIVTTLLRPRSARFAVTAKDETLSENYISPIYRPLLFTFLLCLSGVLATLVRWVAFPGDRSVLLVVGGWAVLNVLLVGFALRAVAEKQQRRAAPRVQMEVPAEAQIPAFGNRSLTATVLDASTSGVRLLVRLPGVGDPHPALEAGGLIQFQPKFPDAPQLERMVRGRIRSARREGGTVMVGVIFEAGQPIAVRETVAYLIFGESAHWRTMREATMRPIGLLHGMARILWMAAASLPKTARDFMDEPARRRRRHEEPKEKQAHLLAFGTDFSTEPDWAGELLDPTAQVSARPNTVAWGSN
T1 sequence (Q3J126 21-725 partner): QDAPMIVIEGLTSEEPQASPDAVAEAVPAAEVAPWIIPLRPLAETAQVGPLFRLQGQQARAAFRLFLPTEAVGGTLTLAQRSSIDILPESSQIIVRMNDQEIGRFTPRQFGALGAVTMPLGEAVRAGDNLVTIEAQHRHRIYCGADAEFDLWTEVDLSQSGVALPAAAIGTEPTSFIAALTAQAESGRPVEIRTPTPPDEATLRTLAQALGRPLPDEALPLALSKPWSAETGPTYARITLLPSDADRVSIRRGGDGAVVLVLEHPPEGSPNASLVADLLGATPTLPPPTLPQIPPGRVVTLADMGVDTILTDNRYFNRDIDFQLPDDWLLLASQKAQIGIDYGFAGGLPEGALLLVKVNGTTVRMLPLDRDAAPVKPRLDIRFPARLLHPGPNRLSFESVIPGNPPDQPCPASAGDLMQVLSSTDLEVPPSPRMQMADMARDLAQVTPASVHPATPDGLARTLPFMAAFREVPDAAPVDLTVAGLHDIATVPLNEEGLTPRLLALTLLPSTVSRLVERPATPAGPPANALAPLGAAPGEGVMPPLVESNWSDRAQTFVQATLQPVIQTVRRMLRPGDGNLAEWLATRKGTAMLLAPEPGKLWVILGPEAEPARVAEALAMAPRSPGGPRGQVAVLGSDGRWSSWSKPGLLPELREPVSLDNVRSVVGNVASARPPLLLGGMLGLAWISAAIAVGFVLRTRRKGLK
Assay: Cellulose synthesis sedimentation assay, inhibition by nucleoside diphosphates, PL-reconstituted BcsA-B
Assay type: biochemical
Conditions: 0.5 mM UDP-Glc; increasing nucleotide concentrations; 60 min, 37° C.
Description: FIG. 4A-4C (also referred to as Example 1, FIG. 4): Product inhibition of cellulose synthase. (FIG. 4A) Enzyme-coupled cellulose synthesis assays were performed as described in FIG. 3 in the absence or presence of 0.1 mg/ml E. coli BesZ. […] Inset: Radioactive sedimentation assay performed with ND-reconstituted BcsA-B synthesizing cellulose in the absence or presence of BcsZ. (FIG. 4B) Inhibition of cellulose synthesis by UDP. Cellulose synthesis sedimentation assays were performed with 1 μM PL-reconstituted BesA-B in the presence of increasing concentrations of the indicated nucleotides and 0.5 mM UDP-Glc for 60 min at 37° C. The obtained product is quantified relative to the polymer formed in the absence of any nucleoside diphosphate. (FIG. 4C) UDP is a competitive inhibitor of cellulose synthase. […] The products are quantified relative to the polymer formed in the absence of UDP and the presence of 5 mM UDP-Glc. […]
Standard cellulose synthase sedimentation assays were performed by incubating 1 μM of cellulose synthase complexes, either in PLs, ND or detergent micelles, in the presence of 30 μM c-di-GMP, 20 mM MgCl2, 5 mM UDP-Glc and 0.25 μCi UDP-[3H]-Glc in AB-buffer lacking glycerol and containing only 0.1 M NaCl. […] Following paper chromatography, the high molecular weight polymer retained at the origin was quantified by scintillation counting. […]

Nc1ncnc2c1ncn2[C@@H]1O[C@H](COP(=O)(O)OP(=O)(O)O)[C@@H](O)[C@H]1O [adenosine-diphosphate]
inhibition of cellulose synthesis by nucleoside diphosphates: do not inhibit cellulose synthesis

Nc1nc2c(ncn2[C@@H]2O[C@H](COP(=O)(O)OP(=O)(O)O)[C@@H](O)[C@H]2O)c(=O)[nH]1 [guanosine-diphosphate]
inhibition of cellulose synthesis by nucleoside diphosphates: do not inhibit cellulose synthesis
